In data set [1] the test system is Staphylococcus aureus Russell. Briefly: Standard MIC test of ampicillin in the presence of compounds of the invention. As to conditions: ampicillin alone, read-out: Concentration of ampicillin in the absence of synergist that did not inhibit growth. Format: cell-based. As for the experimental part:
b. When tested in standard MIC tests in combination with ampicillin the compounds of this invention are seen to enhance the effectiveness of the penicillin against various gram-positive and gram-negative organisms such as strains of Staphylococcus aureus Russell, Klebsiella aerogenes, Proteus mirabilis and Escherichia coli: for example the following MIC values against Staphylococcus aureus Russell were obtained for ampicillin in the presence of 1 μg/ml of certain compounds of the invention:
None of the synergists inhibited the growth of the test organism at 5 μg/ml.

Data set [2] concerns Staph. H. The data set can be described thus: MIC of ampicillin alone and together with sodium O-methylclavulanate. Format: cell-based. As to conditions: Staphylococcus aureus, 0 μg/ml of sodium O-methylclavulanate. The source says: (§1) c. MIC values of ampicillin alone and together with sodium O-methylclavulanate against 3 strains of Straphylococcus aureus and 3 strains of R^+ E. coli

Data set [3] has as its system Staph. Russell. The data set is described as above. Format: cell-based. As to conditions: Staphylococcus aureus, 0 μg/ml of sodium O-methylclavulanate.
Excerpt: as §1

Data set [4] has as its system E. coli JT 68. The data set is described as above. Particulars: Escherichia coli, JT68, 0 μg/ml of sodium O-methylclavulanate. Format: cell-based.
Excerpt: as §1

In data set [5] the test system is Staph. M B9. The description is as above. Particulars: Staphylococcus aureus, 0 μg/ml of sodium O-methylclavulanate. Format: cell-based.
Excerpt: as §1

Data set [6] has as its system E. coli JT 98. The description is as above. Format: cell-based. Particulars: Escherichia coli, JT98, 0 μg/ml of sodium O-methylclavulanate.
Excerpt: as §1

The test system of data set [7] is E. coli JT 39. Described as above. Format: cell-based. As to conditions: Escherichia coli, JT39, 0 μg/ml of sodium O-methylclavulanate.
Excerpt: as §1

The target in data set [8] is Pseudomonas aeruginosa β-lactamase. The data set can be described thus: β-lactamase inhibition I50. Format: biochemical.
For data set [9], the target named is T1, Escherichia coli JT410 β-lactamase (Escherichia coli, UniProt P00811).
T1 construct: host or cells: Escherichia coli JT410
Briefly: β-lactamase inhibition I50. Format: biochemical.

Data set [10] has as its target Klebsiella aerogenes E70 β-lactamase. The data set can be described thus: β-lactamase inhibition I50. Format: biochemical.
Data set [11] deals with T2, Staphylococcus aureus Russell β-lactamase (Staphylococcus aureus, UniProt P00807).
T2 construct: host or cells: Staphylococcus aureus Russell
Briefly: β-lactamase inhibition I50. Format: biochemical.

Data set [12] deals with T3, Escherichia coli JT4 β-lactamase (Escherichia coli, UniProt P62593).
T3 construct: host or cells: Escherichia coli JT4
Briefly: β-lactamase inhibition I50. Format: biochemical.

Data set [13] concerns the target P. moig, Cr. β-lactamase. Briefly: β-lactamase inhibition I50. Format: biochemical.
A short description of data set [14]: Toxicity in mice, sub-cutaneous administration (LD50). Particulars: mouse, in vivo, sc.
For data set [15], the target named is Proteus mirabilis C889 β-lactamase. Briefly: β-lactamase inhibition I50. Format: biochemical.
The target of data set [16] is T4, Pseudomonas dalgleish β-lactamase (Pseudomonas aeruginosa, UniProt P16897).
T4 construct: host or cells: Pseudomonas aeruginosa Dalgleish
Briefly: β-lactamase inhibition I50. Format: biochemical.

A short description of data set [17]: Blood levels in mice after sub-cutaneous administration. Format: in vivo. As to conditions: mouse, sc, 50 mg/kg, read-out: Blood level, mean result for 5 mice; for concentration at 0.5 h: 30 min; for concentration at 0.75 h: 45 min; for concentration at 1 h: 60 min; for concentration at 1.5 h: 90 min. As for the experimental part: a. Blood levels in mice after sub-cutaneous administration of 50 mg/kg of a solution of sodium O-methylclavulanate

For data set [18], the system named is 3 strains of Straphylococcus aureus and 3 strains of R+ E. coli. The data set can be described thus: MIC of sodium O-methylclavulanate alone against each test organism. Format: cell-based, Staphylococcus aureus; E. coli. Particulars: read-out: MIC of sodium O-methylclavulanate against each test organism. Here is the method: as §1
The MIC of sodium O-methylclavulanate against each test organism was in the range 20-40 μg/ml.

Data set [19] in a line: Blood levels in mice after oral administration. Particulars: mouse, 20 mg/kg, read-out: Blood level. Format: in vivo. Here is the method: b. Blood levels in mice after oral administration of 20 mg/kg of sodium O-methylclavulanate
For data set [20], the system named is Klebsiella I.112 infection. Briefly: CD50 of amoxycillin alone and with synergist, oral dosing at 1, 3 and 5 hours. Format: in vivo. Particulars: (×3) mice, oral at 1, 3 and 5 hours post infection. As for the experimental part:
f. CD50 values of amoxycillin alone and together with a salt of O-methylclavulanic acid or O-ethylclavulanic acid against a Klebsiella I.112 infection. The test compounds were administered orally to mice at 1, 3 and 5 hours post inter peritoneal infection.
[In these tests amoxycillin trihydrate equivalent to the stated weights of amoxycillin were used].

Data set [21] is described as follows: Blood level in test mammals. Format: in vivo. Particulars: compared with an equivalent amount of the salt of clavulanic acid.
Data set [22] relates to E. coli JT 39 (R+) infection. The data set can be described thus: CD50 with sodium O-methylclavulanate or sodium clavulanate as synergist, dosing at 1 and 5 hours. Format: in vivo. Particulars: (×2) sub-cutaneous at 1 and 5 hours post infection. As for the experimental part: d. […]
The test compounds were administered sub-cutaneously in freshly prepared buffered saline at 1 hour and 5 hours post intra peritoneal infection: […]

Data set [23] concerns E. coli JT 39 (R+) infection. Briefly: CD50 of amoxycillin with a salt of O-ethylclavulanic acid or clavulanic acid, similar test dosing at 1, 3 and 5 hours. As to conditions: (×3) dosing at 1, 3 and 5 hours post infection. Format: in vivo. As for the experimental part: (§2) e. CD50 values of amoxycillin alone and together with a salt of O-ethylclavulanate acid against an E. coli JT 39 (R^+) infection. The test compounds were administered to mice sub-cutaneously in freshly prepared buffered saline (0.4 mg/ml) at 1 hour and 5 hours post inter peritoneal infection.
In a similar test dosing at 1, 3 and 5 hours post infection the following results were obtained: […]

For data set [24], the system named is E. coli JT 39 (R+) infection. The data set can be described thus: CD50 of amoxycillin with a salt of O-ethylclavulanic acid or clavulanic acid, dosing at 1 and 5 hours. Particulars: (×2) mice, sub-cutaneous at 1 and 5 hours. Format: in vivo. As for the experimental part:
as §2

Where [25] appears, read: columns Synergist = Salt of clavulanic acid.

The IC50 is the concentration that gives 50% inhibition. Read a low IC50 as inhibition by little substance. One may read the LD50 as the dose at which mortality reaches 50%. The low end stands for greater toxicity, the high end for lower toxicity.

Where a name gives a salt, the structure may show the parent alone.

T2 sequence (P00807 25-281): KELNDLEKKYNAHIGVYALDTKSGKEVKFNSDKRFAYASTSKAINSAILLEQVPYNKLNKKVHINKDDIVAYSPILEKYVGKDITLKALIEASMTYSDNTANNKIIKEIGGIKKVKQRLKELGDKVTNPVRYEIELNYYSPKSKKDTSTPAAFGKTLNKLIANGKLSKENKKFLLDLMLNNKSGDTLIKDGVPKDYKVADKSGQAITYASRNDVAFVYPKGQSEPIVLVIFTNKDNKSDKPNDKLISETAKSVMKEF
T3 sequence (P62593 24-286 limits assumed): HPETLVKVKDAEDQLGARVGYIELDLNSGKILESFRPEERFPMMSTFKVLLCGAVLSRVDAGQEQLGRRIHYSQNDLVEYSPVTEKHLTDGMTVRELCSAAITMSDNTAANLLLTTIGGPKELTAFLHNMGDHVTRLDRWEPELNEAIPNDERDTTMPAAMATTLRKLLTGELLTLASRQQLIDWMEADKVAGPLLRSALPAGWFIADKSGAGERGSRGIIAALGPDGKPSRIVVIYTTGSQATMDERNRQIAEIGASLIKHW
T4 sequence (P16897 18-288): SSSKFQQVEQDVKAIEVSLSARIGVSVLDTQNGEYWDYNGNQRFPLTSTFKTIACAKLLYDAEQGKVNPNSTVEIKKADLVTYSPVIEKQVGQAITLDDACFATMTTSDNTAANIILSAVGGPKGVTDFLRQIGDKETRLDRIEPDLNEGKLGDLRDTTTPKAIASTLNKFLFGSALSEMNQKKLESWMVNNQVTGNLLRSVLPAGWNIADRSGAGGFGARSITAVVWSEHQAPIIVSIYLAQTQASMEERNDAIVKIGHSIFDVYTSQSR
T1 sequence (P00811 20-377): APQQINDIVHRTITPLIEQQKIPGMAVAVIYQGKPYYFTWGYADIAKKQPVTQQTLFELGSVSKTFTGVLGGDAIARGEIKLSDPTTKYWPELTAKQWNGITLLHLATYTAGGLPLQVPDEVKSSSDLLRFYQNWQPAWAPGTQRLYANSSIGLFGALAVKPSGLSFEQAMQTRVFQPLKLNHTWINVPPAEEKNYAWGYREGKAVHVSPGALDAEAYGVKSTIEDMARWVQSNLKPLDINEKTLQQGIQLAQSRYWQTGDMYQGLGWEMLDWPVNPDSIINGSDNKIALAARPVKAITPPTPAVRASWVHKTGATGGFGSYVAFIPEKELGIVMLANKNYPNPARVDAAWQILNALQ

Regarding `CC1(C)S[C@@H]2[C@H](NC(=O)[C@H](N)c3ccccc3)C(=O)N2[C@H]1C(=O)O` [Ampicillin, ampicillin], the MIC is more than 250 µg/mL in data set [1]; 640 µg/mL in [2]; 80 µg/mL in [3]; 2560 µg/mL in data set [4]; 640 µg/mL in data set [5]; 1280 µg/mL in [6]. Moreover, the MIC in [7] was more than 2560 µg/mL.
In the case of `COC/C=C1\O[C@@H]2CC(=O)N2[C@H]1C(=O)OC` [Example 1, Methyl 9--O--methylclavulanate], the “β-lactamase inhibition I50, Pseudomonas aeruginosa” value in [8] worked out at 1.9 µg/mL. In addition, the IC50 is 13600 nM in [9], 2200 nM in [11] and 3960 nM in [12]. Moreover, the “β-lactamase inhibition I50, Klebsiella aerogenes E70” value in data set [10] amounted to 0.25 µg/mL. The “β-lactamase inhibition I50, P. moig, Cr.” value in data set [13] was 0.68 µg/mL.
`O=C(O)[C@H]1/C(=C/COCc2ccccc2)O[C@@H]2CC(=O)N21` [Example 5, Sodium 9-O-benzylclavulanate] yielded an LD50 in data set [14] of more than 250 mg/kg. Besides, the “β-lactamase inhibition I50, Klebsiella aerogenes E70” value in [10] was 0.04 µg/mL. Moreover, the IC50 was 17.3 nM in data set [11], 346 nM in data set [12] and 27.7 nM in [16]. Besides, in data set [15], the “β-lactamase inhibition I50, Proteus mirabilis C889” value was determined as 0.02 µg/mL.
For the molecule `O=C(O)[C@H]1/C(=C/CO)O[C@@H]2CC(=O)N21` [Sodium clavulanate, reference compound], in data set [17], the concentration at 10 min stood at 9300 ng/mL, the concentration at 20 min stood at 8700 ng/mL, the concentration at 0.5 h is 2990 ng/mL and the concentration at 0.75 h amounted to 1950 ng/mL. Further, in data set [17], the concentration at 1 h is 500 ng/mL and the concentration at 1.5 h came out at 90 ng/mL.
For `COC/C=C1\O[C@@H]2CC(=O)N2[C@H]1C(=O)OCc1ccccc1` [Example 2, Benzyl 9-O-methylclavulanate], the “β-lactamase inhibition I50, Pseudomonas aeruginosa” value in [8] was determined as 1.4 µg/mL. Further, in data set [10], the “β-lactamase inhibition I50, Klebsiella aerogenes E70” value turned out to be 0.05 µg/mL. The IC50 in data set [11] is 165 nM; in data set [12] it was 330 nM; in [16], less than 231 nM. In addition, the “β-lactamase inhibition I50, Proteus mirabilis C889” value in [15] is less than 0.07 µg/mL.
Take `CCOC(=O)COC/C=C1\O[C@@H]2CC(=O)N2[C@H]1C(=O)OCc1ccccc1` [Example 6, Benzyl 9-O-ethoxycarbonylmethylclavulanate]: in [10], the “β-lactamase inhibition I50, Klebsiella aerogenes E70” value is 0.30 µg/mL. Moreover, the IC50 is 320 nM in data set [11] and 373 nM in [12]. Also, the “β-lactamase inhibition I50, Proteus mirabilis C889” value in data set [15] was 1.0 µg/mL.
As to `COC/C=C1\O[C@@H]2CC(=O)N2[C@H]1C(=O)O` [Example 3, Sodium 9-O-methylclavulanate], in [17], the concentration at 10 min amounted to 14500 ng/mL, the concentration at 20 min stood at 12800 ng/mL, the concentration at 0.5 h was 7900 ng/mL and the concentration at 0.75 h is 4100 ng/mL. In data set [17], the concentration at 1 h is 1400 ng/mL and the concentration at 1.5 h stood at 480 ng/mL. Further, the “β-lactamase inhibition I50, Klebsiella aerogenes E70” value in [10] was determined as 0.07 µg/mL. The MIC in data set [18] lay within 20 to 40 µg/mL. This molecule gave an IC50 in data set [11] of 235 nM. Also, the IC50 in data set [12] was 844 nM. The “β-lactamase inhibition I50, Proteus mirabilis C889” value in data set [15] worked out at 0.01 µg/mL. Further, the concentration at 0.25 h in [19] (15 min) was determined as 5200 ng/mL. In addition, the concentration at 0.5 h in data set [19] (30 min) came to 3400 ng/mL. Besides, the concentration at 0.75 h in data set [19] (45 min) stood at 2200 ng/mL. Besides, in data set [19] (60 min), the concentration at 1 h was 1200 ng/mL. Further, the concentration at 1.5 h in data set [19] (90 min) amounted to 500 ng/mL.
For the molecule `CC1(C)S[C@@H]2[C@H](NC(=O)[C@H](N)c3ccc(O)cc3)C(=O)N2[C@H]1C(=O)O` [Amoxycillin], in data set [20], the ED50 is more than 1000 mg/kg.
With `COC(=O)[C@H]1/C(=C/COCc2ccccc2)O[C@@H]2CC(=O)N21` [Example 4, Methyl 9-O-benzylclavulanate], the “β-lactamase inhibition I50, Klebsiella aerogenes E70” value in [10] worked out at 0.8 µg/mL. Besides, the IC50 in data set [11] is 16.5 nM; in data set [12], 2640 nM.
Turning to `CCOC(=O)COC/C=C1\O[C@@H]2CC(=O)N2[C@H]1C(=O)O` [Example 7, Sodium 9-O-ethoxycarbonylmethylclavulanate], the “β-lactamase inhibition I50, Klebsiella aerogenes E70” value in data set [10] was found to be 0.034 µg/mL. For the same molecule, the IC50 was 154 nM in data set [11] and 561 nM in data set [12]. In data set [15], the “β-lactamase inhibition I50, Proteus mirabilis C889” value is 0.025 µg/mL.
In the case of `COC/C=C1\O[C@@H]2CC(=O)N2[C@H]1C(=O)O` [salt of O-methylclavulanic acid], in data set [21], the “Blood level after administration, in words” value was “more prolonged blood level”.
In the case of `N#CCOC/C=C1\O[C@@H]2CC(=O)N2[C@H]1C(=O)O` [Example 12, Sodium 9-O-cyanomethylclavulanate], the LD50 in [14] was more than 250 mg/kg.
In the case of `CC1(C)S[C@@H]2[C@H](NC(=O)[C@H](N)c3ccc(O)cc3)C(=O)N2[C@H]1C(=O)O` [Sodium Amoxycillin], the “CD50 of Sodium Amoxycillin alone” value in data set [22] (columns Synergist = Sodium clavulanate), in data set [23] (setting [25]) and in data set [24] (setting [25]) was more than 1000 mg/kg throughout. For the same molecule, the ED50 is more than 1000 mg/kg in data set [22] (Escherichia coli, sc, columns Synergist = Sodium O-methylclavulanate, read-out: CD50 of Sodium Amoxycillin alone); more than 1000 mg/kg in [23] (Escherichia coli, in Mus musculus, sc, columns Synergist = Salt of O-ethylclavulanic acid, read-out: CD50 of Sodium Amoxycillin alone); more than 1000 mg/kg in data set [24] (Escherichia coli, sc, columns Synergist = Salt of O-ethylclavulanic acid, read-out: CD50 of Sodium Amoxycillin alone).

For the origin of these results see patent US4228174A, “Clavulanic acid ethers” (priority 1975, dated 1980).
